# ChEMBL document CHEMBL6074680, “Structure-Based Discovery of a Series of Covalent, Orally Bioavailable, and Selective BFL1 Inhibitors” (J Med Chem, 2024)
# How the values were obtained:
# BCL2A1/BID = biological target: T1, BCL2A1/BID (Homo sapiens, UniProt Q16548); experiment: Inhibition of BFL-1/ BH3 (unknown origin) interaction incubated for 2 hrs by TR-FRET assay; type: protein assay
# T1 sequence (Q16548 whole entry): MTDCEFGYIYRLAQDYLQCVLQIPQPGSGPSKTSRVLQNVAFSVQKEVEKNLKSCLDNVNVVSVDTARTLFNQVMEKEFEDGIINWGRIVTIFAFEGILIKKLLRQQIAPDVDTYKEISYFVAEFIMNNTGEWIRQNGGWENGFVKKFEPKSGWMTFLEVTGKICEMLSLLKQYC
# T1 sequence (P55957 whole entry): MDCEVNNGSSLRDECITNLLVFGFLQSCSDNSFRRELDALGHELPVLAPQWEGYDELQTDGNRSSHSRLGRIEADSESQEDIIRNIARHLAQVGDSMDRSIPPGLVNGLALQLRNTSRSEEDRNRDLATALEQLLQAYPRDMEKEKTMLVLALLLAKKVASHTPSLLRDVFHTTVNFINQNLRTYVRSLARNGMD
# SU-DHL-1 [1] = experiment: Induction of apoptosis in human SU-DHL-1 cells assessed as caspase activation in presence of AZD5991 incubated for 6 hrs by caspaseGlo 3/7 reagent based assay; type: functional, cell-based; details: SU-DHL-1, 6 h
# SU-DHL-1 [2] = experiment: Antiproliferative activity against human SU-DHL-1 cells assessed as cell viability incubated for 24 hrs by celltiter-glo assay; type: functional, cell-based; details: SU-DHL-1, 24 h
# [3] = Lipophilicity, log D of compound in 1-octanol at pH 7.4 incubated for 4 hrs by HPLC-UV analysis; type: physicochemical; details: 1-octanol / aqueous phase at pH 7.4, pH 7.4
# [4] = Metabolic stability in rat hepatocytes assessed as intrinsic clearance measured per 10^6 cells; type: ADME, cell-based, Hepatocyte
# [5] = Metabolic stability in mouse hepatocytes assessed as intrinsic clearance measured per 10^6 cells; type: ADME, cell-based, Hepatocyte; details: read-out: CLH
# [6] = Metabolic stability in human hepatocytes assessed as intrinsic clearance measured per 10^6 cells; type: ADME, cell-based, Hepatocyte; details: read-out: CLH
# [7] = biological target: Induced myeloid leukemia cell differentiation protein Mcl-1 (Homo sapiens, UniProt Q07820); experiment: Inhibition of MCL1 (unknown origin) by FRET assay
# Chain of Induced myeloid leukemia cell differentiation protein Mcl-1 (Q07820 whole entry): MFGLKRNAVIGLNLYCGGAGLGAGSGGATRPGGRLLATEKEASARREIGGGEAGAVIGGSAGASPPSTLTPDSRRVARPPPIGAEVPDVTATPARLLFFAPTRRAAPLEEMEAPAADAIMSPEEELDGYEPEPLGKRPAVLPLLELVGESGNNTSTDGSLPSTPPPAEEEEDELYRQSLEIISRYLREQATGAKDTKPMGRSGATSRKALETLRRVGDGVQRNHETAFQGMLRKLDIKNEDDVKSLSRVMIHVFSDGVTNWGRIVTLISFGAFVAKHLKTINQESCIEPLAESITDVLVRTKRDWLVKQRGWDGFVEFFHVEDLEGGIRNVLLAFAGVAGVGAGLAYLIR
# Bcl-2-like protein 1 = Bcl-2-like protein 1 (Homo sapiens, UniProt Q07817); experiment: Inhibition of Bcl-Xl (unknown origin) by FRET assay
# Chain of Bcl-2-like protein 1 (Q07817 whole entry): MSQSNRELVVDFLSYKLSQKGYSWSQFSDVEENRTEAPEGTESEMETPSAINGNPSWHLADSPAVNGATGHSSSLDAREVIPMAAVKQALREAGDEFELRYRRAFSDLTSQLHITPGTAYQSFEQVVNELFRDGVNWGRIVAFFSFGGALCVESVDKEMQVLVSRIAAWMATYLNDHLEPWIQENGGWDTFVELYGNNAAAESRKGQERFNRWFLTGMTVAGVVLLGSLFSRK
# [8] = biological target: Apoptosis regulator Bcl-2 (Homo sapiens, UniProt P10415); experiment: Inhibition of BCL2 (unknown origin) by FRET assay
# Chain of Apoptosis regulator Bcl-2 (P10415 whole entry): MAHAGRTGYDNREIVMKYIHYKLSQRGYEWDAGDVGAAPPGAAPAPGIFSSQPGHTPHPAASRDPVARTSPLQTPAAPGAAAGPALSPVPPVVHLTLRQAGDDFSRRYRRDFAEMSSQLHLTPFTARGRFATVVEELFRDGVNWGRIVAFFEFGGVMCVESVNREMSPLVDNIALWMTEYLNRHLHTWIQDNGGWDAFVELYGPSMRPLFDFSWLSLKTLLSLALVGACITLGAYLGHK
# [9] = Apparent permeability across apical to basolateral side in human Caco-2 cells measured upto 120 mins by LC-MS/MS analysis; type: ADME, cell-based
# [10] = Volume of distribution at steady state in CD-1 mouse at 1 mg/kg, po or 0.5 mg/kg, iv measured upto 24 hrs by LC-MS/MS analysis; type: ADME, organism-based; details: in vivo
# [11] = Half life in CD-1 mouse at 1 mg/kg, po or 0.5 mg/kg, iv measured upto 24 hrs by LC-MS/MS analysis; type: ADME, organism-based; details: in vivo
# [12] = Plasma protein binding in mouse assessed as unbound fraction; type: ADME, cell-free
# [13] = Metabolic stability in human liver microsome assessed as intrinsic clearance; type: ADME; details: human liver microsomes, read-out: CLH
# [14] = GSH reactivity in PBS buffer at pH 7.4 assessed as half life by LC-UV/MS analysis; type: physicochemical
Structure (SMILES),IC50 (BCL2A1/BID) [nM],EC50 (SU-DHL-1 [1]) [nM],also measured
CNS(=O)(=O)OCC(=O)N(Cc1ccc(Cl)cc1)c1ccc(O[C@@H]2CC[C@@H](N)C2)cc1,6500,–,–
C=CC(=O)N(c1ccc(O[C@@H]2CC[C@@H](N)C2)cc1)[C@@H](C[C@H](C)O)c1ccc(Cl)cc1,18,140,EC50 (SU-DHL-1 [2]): 170 nM
C=CC(=O)N(c1ccc(O[C@@H]2CC[C@@H](N)C2)cc1)[C@@H](CCNS(C)(=O)=O)c1ccc(Cl)cc1,17,90,EC50 (SU-DHL-1 [2]): 130 nM
C[C@@H](c1ccc(Cl)cc1)N(C(=O)/C=C/CN(C)C)c1ccc(O[C@@H]2CC[C@@H](N)C2)cc1,90,–,–
C=CC(=O)N(c1ccc(O[C@@H]2CC[C@@H](NC(=O)N[C@@H]3CCS(=O)(=O)C3)C2)c(F)c1)[C@@H](CC(C)(C)O)c1ccc(Cl)cc1,4.2,19,"logD at 4 h [3]: 3.1; hepatocyte CLint ([4]; rat hepatocytes, read-out: CLH): 52 µL/min/1e6 cells; hepatocyte CLint [5]: 49 µL/min/1e6 cells; hepatocyte CLint [6]: 5.3 µL/min/1e6 cells; EC50 (SU-DHL-1 [2]): 49 nM"
C=CC(=O)N(c1ccc(O[C@@H]2CC[C@@H](N)C2)cc1)[C@H](CNS(C)(=O)=O)c1ccc(Cl)cc1,2800,> 10000,–
C=CC(=O)N(c1ccc(O[C@@H]2CC[C@@H](NC(=O)CCCN(C)C)C2)cc1)[C@@H](C)c1ccc(Cl)cc1,74,610,–
C=CC(=O)N(c1ccc(O[C@@H]2CC[C@@H](N)C2)cc1)[C@@H](CNS(C)(=O)=O)c1ccc(Cl)cc1,31,350,IC50 [7]: > 100000 nM
C=CC(=O)N(c1ccc(O[C@@H]2CC[C@@H](NC(=O)N[C@@H]3CCS(=O)(=O)C3)C2)c(F)c1)[C@@H](CC(N)=O)c1ccc(Cl)cc1,5,79,"logD at 4 h [3]: 2.2; hepatocyte CLint ([4]; rat hepatocytes, read-out: CLH): 74 µL/min/1e6 cells; hepatocyte CLint [5]: 45 µL/min/1e6 cells; hepatocyte CLint [6]: 25 µL/min/1e6 cells"
C=CC(=O)N(c1ccc(O[C@@H]2CC[C@@H](N)C2)cc1F)[C@@H](C)c1ccc(Cl)cc1,48,410,–
C=CC(=O)N(c1ccc(O[C@@H]2CC[C@@H](N)C2)cc1)[C@@H](C)c1ccc(Cl)cc1,–,1100,–
C=CC(=O)N(c1ccc(O[C@@H]2CC[C@@H](NC(=O)NCCN(C)C)C2)c(Cl)c1)[C@@H](C)c1ccc(Cl)cc1,4.5,28,"logD at 4 h [3]: 3.5; hepatocyte CLint ([4]; rat hepatocytes, read-out: CLH): 17 µL/min/1e6 cells; hepatocyte CLint [5]: 42 µL/min/1e6 cells; hepatocyte CLint [6]: 9.8 µL/min/1e6 cells; EC50 (SU-DHL-1 [2]): 72 nM"
C=CC(=O)N(c1ccc(O[C@@H]2CC[C@@H](N)C2)cc1)[C@@H](CC(C)(C)O)c1ccc(Cl)cc1,33,520,IC50 [7]: > 100000 nM
C=CC(=O)N(c1ccc(O[C@@H]2CC[C@@H](N)C2)c(F)c1)[C@@H](CC(C)(C)O)c1ccc(Cl)cc1,11,42,"logD at 4 h [3]: 1.5; hepatocyte CLint ([4]; rat hepatocytes, read-out: CLH): 7.3 µL/min/1e6 cells; hepatocyte CLint [5]: 15 µL/min/1e6 cells; hepatocyte CLint [6]: 5.9 µL/min/1e6 cells; EC50 (SU-DHL-1 [2]): 58 nM"
C=CC(=O)N(c1ccc(O[C@@H]2CC[C@@H](NC(=O)NCC(C)(C)N(C)C)C2)c(F)c1)[C@@H](C)c1ccc(Cl)cc1,3.9,30,"logD at 4 h [3]: 2.8; hepatocyte CLint ([4]; rat hepatocytes, read-out: CLH): 14 µL/min/1e6 cells; hepatocyte CLint [5]: 73 µL/min/1e6 cells; hepatocyte CLint [6]: 6.1 µL/min/1e6 cells; EC50 (SU-DHL-1 [2]): 87 nM"
C=CC(=O)N(c1ccc(O[C@@H]2CC[C@@H](N)C2)c(C)c1)[C@@H](C)c1ccc(Cl)cc1,77,650,–
C=CC(=O)N(c1ccc(O[C@@H]2CC[C@@H](NC(=O)N[C@@H]3CCS(=O)(=O)C3)C2)c(F)c1)[C@@H](C)c1ccc(C(F)(F)F)c(C#N)c1,87,910,"logD at 4 h [3]: 3.2; hepatocyte CLint ([4]; rat hepatocytes, read-out: CLH): 262 µL/min/1e6 cells"

Structure (SMILES),IC50 (BCL2A1/BID) [nM],EC50 (SU-DHL-1 [1]) [nM],also measured
C=CC(=O)N(c1ccc(O[C@@H]2CC[C@@H](NC(=O)N[C@H]3CCNC3)C2)cc1)[C@@H](C)c1ccc(Cl)cc1,29,3100,IC50 [7]: > 100000 nM
C=CC(=O)N(c1ccc(O[C@@H]2CC[C@@H](N)C2)cc1OC)[C@@H](C)c1ccc(Cl)cc1,880,2400,–
C=CC(=O)N(c1ccc(O[C@@H]2CC[C@@H](N)C2)cc1)[C@H](c1ccc(Cl)cc1)c1cncnc1,33,120,–
C=C(C)C(=O)N(Cc1ccc(C(F)(F)F)cc1)c1ccc(O[C@@H]2CC[C@@H](N)C2)cc1 (racemic),> 10000,–,–
CC#CC(=O)N(c1ccc(O[C@@H]2CC[C@@H](N)C2)cc1)[C@@H](C)c1ccc(Cl)cc1,300,–,–
C=C(F)C(=O)N(Cc1ccc(C(F)(F)F)cc1)c1ccc(O[C@@H]2CC[C@@H](N)C2)cc1 (racemic),> 7800,–,–
C[C@@H](c1ccc(Cl)cc1)N(C(=O)/C=C/CN(C)C)c1ccc(O[C@@H]2CC[C@@H](NC(=O)N[C@@H]3CCS(=O)(=O)C3)C2)c(F)c1,8.5,52,"logD at 4 h [3]: 2.5; hepatocyte CLint ([4]; rat hepatocytes, read-out: CLH): 28 µL/min/1e6 cells; hepatocyte CLint [5]: 17 µL/min/1e6 cells; hepatocyte CLint [6]: 1.5 µL/min/1e6 cells; EC50 (SU-DHL-1 [2]): 110 nM; IC50 (Bcl-2-like protein 1): > 30000 nM; IC50 [8]: > 30000 nM"
C[C@@H](c1ccc(Cl)cc1)N(C(=O)/C=C/CN(C)C)c1ccc(O[C@@H]2CC[C@@H](NC(=O)NC3CS(=O)(=O)C3)C2)c(F)c1,10,110,logD at 4 h [3]: 2.7; hepatocyte CLint [5]: 23 µL/min/1e6 cells; hepatocyte CLint [6]: 2.6 µL/min/1e6 cells; Papp A→B at 2 h [9]: < 11 ×10⁻⁶ cm/s; EC50 (SU-DHL-1 [2]): 110 nM; IC50 (Bcl-2-like protein 1): > 30000 nM; IC50 [8]: > 30000 nM; Vdss [10]: 4.6 L/kg; half-life [11]: 2.7 h; fraction unbound [12]: 0.085
C=CC(=O)N(c1ccc(O[C@@H]2CC[C@@H](N)C2)cc1)[C@@H](CC(N)=O)c1ccc(Cl)cc1,43,490,IC50 [7]: > 100000 nM
C=CC(=O)N(c1ccc(O[C@@H]2CC[C@@H](N)C2)c(Cl)c1)[C@@H](C)c1ccc(Cl)cc1,24,120,–
C=CC(=O)N(c1ccc(O[C@@H]2CC[C@@H](N)C2)cc1)[C@@H](COC)c1ccc(Cl)cc1,–,450,IC50 [7]: > 100000 nM
C=CC(=O)N(c1ccc(O[C@@H]2CC[C@@H](NC(=O)NCCN(C)C)C2)cc1)[C@@H](C)c1ccc(Cl)cc1,50,500,–
C=CC(=O)N(c1ccc(O[C@@H]2CC[C@@H](NC(=O)NC3CCS(=O)(=O)C3)C2)cc1)[C@@H](C)c1ccc(Cl)cc1 (mixture of isomers),40,110,–
C=CC(=O)N(c1ccc(O[C@@H]2CC[C@@H](N)C2)c(C#N)c1)[C@@H](C)c1ccc(Cl)cc1,14,120,–
CN1CCC[C@@H]1/C=C/C(=O)N(Cc1ccc(Cl)cc1)c1ccc(O[C@@H]2CC[C@@H](N)C2)cc1,240,–,–
C=C(Cl)C(=O)N(Cc1ccc(C(F)(F)F)cc1)c1ccc(O[C@@H]2CC[C@@H](N)C2)cc1 (racemic),1000,–,logD at 4 h [3]: 2.4; hepatocyte CLint ([4]; hepatocytes): 52 µL/min/1e6 cells; microsomal CLint [13]: 7.8 µL/min/mg; half-life [14]: 1.42 h
